Results: patent publication US20240287070A1, “FUSED HETEROCYCLIC DERIVATIVES” (Janssen Sciences Ireland Unlimited Company, priority 2021, published 2024)

Columns and labels:
[1] = Human liver microsome stability; type: in vitro ADME; conditions: 1 μM compound, NADPH 1 mM, 37° C., 0-60 min; for half-life at 1 μM: human, pooled human liver microsomes, pH 7.4, pooled human liver microsomes 0.5 mg/mL, read-out: HLM Metabolism t1/2
Method: Human Liver Microsome Stability t½ (Min) of Compounds of Formula (I) […] All incubations are performed singularly for each compound. NADPH was added to initiate the reaction with the final concentration of 1 mM and the final incubation volume of 400 μL. At 6 time points (0, 5, 10, 20, 40 and 60 min) reactions were stopped by the removal of 50 μL of the incubation mixture into plates containing acetonitrile at a of 1:3 (v:v). The plates were centrifuged at 3000 rpm for 10 min at 4° C. to precipitate the protein. Following protein precipitation, the sample supernatants were combined in cassettes of up to 8 compounds. The internal standard was added (1:1 supernatant to internal standard solution) and samples were analyzed using standard LC-MS conditions. From a plot of ln peak area ratio (compound peak area/internal standard peak area) against time, the gradient of the line is determined. Subsequently, half-life is calculated using the equations below: Elimination rate constant (k)=(−gradient) […]

[2] = Cytotoxicity, ATPlite Luminescence Assay; type: cell-based, human; conditions: human, HepG2 or HepG2.117 cells, 3-days incubation unless marked with *
Method: Cytotoxicity of the compounds was tested using HepG2 or HepG2.117 cells, incubated for 3 or 4 days in the presence of compounds. The viability of the cells was assessed using the PERKIN ELMER ATPlite Luminescence Assay System.”

[3] = test system: HBV (HepG2.117 cell line, inducibly HBV producing); assay: Anti-HBV activity, intracellular HBV DNA by real-time PCR in HepG2.117 cell line; type: cell-based, hepatitis B virus; conditions: HepG2.117 cells, 3 days of treatment
Method: The anti HBV activity was measured using the HepG2.117 cell line, a stable, inducibly HBV producing cell line, which replicates HBV in the absence of doxycycline (Tet-off system). The HepG2 cell line is available from ATCCR under number HB-8065. Transfection of the HepG2 cell line can be as described in Sun and Nassal 2006 Journal of Hepatology 45 (2006) 636-645 “Stable HepG2- and Huh7-based human hepatoma cell lines for efficient regulated expression of infectious hepatitis B virus”.
For the antiviral assay, HBV replication was induced, followed by a treatment with serially diluted compound in 96-well plates. After 3 days of treatment, the antiviral activity was determined by quantification of intracellular HBV DNA using real-time PCR and an HBV specific primer set and probe.

[4] = Hepatitis B virus, HepG2.117, 72 h

| Compound | half-life at 1 μM [1] | CC50 at 3 days [2] | EC50 [3] | EC50 [3, 4] | HLM Metabolism t1/2 ([1]; pooled human liver microsomes 0.5 mg/mL) |
| --- | --- | --- | --- | --- | --- |
| CC(c1ccc(C(C)(C)O)nc1)N1C[C@@H](C)n2nc3c(c2C1=O)CN(C(=O)c1ccc(Cl)c(F)c1)[C@H](C)C3 (single isomer, unassigned) [Compound 59A, (3R,7R)-2-(4-chloro-3-fluorobenzoyl)-9-((R*)-1-(6-(2-hydroxypropan-2-yl)pyridin-3-yl)ethyl)-3,7-dimethyl-1,2,3,4,8,9-hexahydropyrido[4′,3′:3,4]pyrazolo[1,5-a]pyrazin-10(7H)-one] | > 3 h | > 50 µM | 0.51 µM | – | – |
| CC(c1cn(C2CC2)c(=O)cn1)N1C[C@@H](C)n2nc3c(c2C1=O)CN(C(=O)c1ccc(Cl)c(Cl)c1)[C@H](C)C3 (single isomer, unassigned) [Compound 56A, (3R,7R)-9-((R*)-1-(4-cyclopropyl-5-oxo-4,5-dihydropyrazin-2-yl)ethyl)-2-(3,4-dichlorobenzoyl)-3,7-dimethyl-1,2,3,4,8,9-hexahydropyrido[4′,3′:3,4]pyrazolo[1,5-a]pyrazin-10(7H)-one] | > 3 h | > 50 µM | 0.29 µM | – | – |
| CNC(=O)C(c1ccc(OC(F)F)cc1)N1C[C@@H](C)n2nc3c(c2C1=O)CN(C(=O)c1ccc(Cl)c(Cl)c1)[C@H](C)C3 (single isomer, unassigned) [Compound 23A, (R*)-2-((3R,7R)-2-(3,4-dichlorobenzoyl)-3,7-dimethyl-10-oxo-1,3,4,7,8,10-hexahydropyrido[4′,3′:3,4]pyrazolo[1,5-a]pyrazin-9(2H)-yl)-2-(4-(difluoromethoxy)phenyl)-N-methylacetamide] | 1.88 h | 32.1 µM | 0.066 µM | – | – |
| CC(c1cc(F)ccn1)N1C[C@@H](C)n2nc3c(c2C1=O)CN(C(=O)c1ccc(Cl)c(Cl)c1)[C@H](C)C3 (single isomer, unassigned) [Compound 32A] | 1.68 h | > 50 µM | 0.016 µM | – | – |
| CNC(=O)C1(Oc2ccc(C(C)N3C[C@@H](C)n4nc5c(c4C3=O)CN(C(=O)c3ccc(Cl)c(C#N)c3)[C@H](C)C5)cc2)CC1 (single isomer, unassigned) [Compound 13A, 1-(4-((R*)-1-((3R,7R)-2-(4-chloro-3-cyanobenzoyl)-3,7-dimethyl-10-oxo-1,2,3,4,7,8-hexahydropyrido[4′,3′:3,4]pyrazolo[1,5-a]pyrazin-9(10H)-yl)ethyl)phenoxy)-N-methylcyclopropanecarboxamide] | 1.88 h | > 50 µM | 0.037 µM | – | – |
| CC(c1ccc(C(F)(F)F)nc1)N1C[C@@H](C)n2nc3c(c2C1=O)CN(C(=O)c1ccc(Cl)c(C#N)c1)[C@H](C)C3 (single isomer, unassigned) [Compound 12A, 2-Chloro-5-((3R,7R)-3,7-dimethyl-10-oxo-9-((R*)-1-(6-(trifluoromethyl)pyridin-3-yl)ethyl)-1,2,3,4,7,8,9,10-octahydropyrido[4′,3′:3,4]pyrazolo[1,5-a]pyrazine-2-carbonyl)benzonitrile] | > 3 h | > 50 µM | 0.6 µM | – | – |
| CC(c1ccc(C(C)(C)O)cc1)N1C[C@@H](C)n2nc3c(c2C1=O)CN(C(=O)c1ccc(Cl)c(Cl)c1)[C@H](C)C3 (single isomer, unassigned) [Compound 8A, (3R,7R)-2-(3,4-dichlorobenzoyl)-9-((R*)-1-(4-(2-hydroxypropan-2-yl)phenyl)ethyl)-3,7-dimethyl-1,2,3,4,8,9-hexahydropyrido[4′,3′:3,4]pyrazolo[1,5-a]pyrazin-10(7H)-one] | > 3 h | 20.1 µM | 0.024 µM | – | – |
| CC(c1ccc(C#N)cc1)N1C[C@@H](C)n2nc3c(c2C1=O)CN(C(=O)c1ccc(Cl)c(Cl)c1)[C@H](C)C3 (single isomer, unassigned) [Compound 66A, 4-((R*)-1-((3R,7R)-2-(3,4-dichlorobenzoyl)-3,7-dimethyl-10-oxo-1,3,4,7,8,10-hexahydropyrido[4′,3′:3,4]pyrazolo[1,5-a]pyrazin-9(2H)-yl)ethyl)benzonitrile] | > 3 h | > 26.2 µM | 0.037 µM | – | – |
| CC(c1ccn(CC(C)(C)O)c(=O)c1)N1C[C@@H](C)n2nc3c(c2C1=O)CN(C(=O)c1ccc(Cl)c(C(F)(F)F)c1)[C@H](C)C3 (single isomer, unassigned) [Compound 64A, (3R,7R)-2-(4-chloro-3-(trifluoromethyl)benzoyl)-9-((R*)-1-(1-(2-hydroxy-2-methylpropyl)-2-oxo-1,2-dihydropyridin-4-yl)ethyl)-3,7-dimethyl-1,2,3,4,8,9-hexahydropyrido[4′,3′:3,4]pyrazolo[1,5-a]pyrazin-10(7H)-one] | 1.82 h | > 50 µM | 0.039 µM | – | – |
| CC(c1ccnc(OC(F)F)c1)N1C[C@@H](C)n2nc3c(c2C1=O)CN(C(=O)c1ccc(Cl)c(C(F)(F)F)c1)[C@H](C)C3 (single isomer, unassigned) [Compound 50A, (3R,7R)-2-(4-chloro-3-(trifluoromethyl)benzoyl)-9-((R*)-1-(2-(difluoromethoxy)pyridin-4-yl)ethyl)-3,7-dimethyl-1,2,3,4,8,9-hexahydropyrido[4′,3′:3,4]pyrazolo[1,5-a]pyrazin-10(7H)-one] | > 3 h | 12.5 µM | 0.066 µM | – | – |
| C[C@@H]1Cc2nn3c(c2CN1C(=O)c1ccc(Cl)c(C(F)(F)F)c1)C(=O)N([C@@H](C)c1ccc([S@@](C)(=N)=O)cc1)C[C@H]3C (relative stereo) [Compound 19D, (3R,7R)-2-(4-chloro-3-(trifluoromethyl)benzoyl)-3,7-dimethyl-9-((S*)-1-(4-((S*)—S-methylsulfonimidoyl)phenyl)ethyl)-1,2,3,4,8,9-hexahydropyrido[4′,3′:3,4]pyrazolo[1,5-a]pyrazin-10(7H)-one] | > 3 h | > 50 µM | – | 0.011 µM | – |
| CC(c1cnc(C(C)(C)O)nc1)N1C[C@@H](C)n2nc3c(c2C1=O)CN(C(=O)c1ccc(Cl)c(C(F)(F)F)c1)[C@H](C)C3 (single isomer, unassigned) [Compound 35A, (3R,7R)-2-(4-chloro-3-(trifluoromethyl)benzoyl)-9-((R*)-1-(2-(2-hydroxypropan-2-yl)pyrimidin-5-yl)ethyl)-3,7-dimethyl-1,2,3,4,8,9-hexahydropyrido[4′,3′:3,4]pyrazolo[1,5-a]pyrazin-10(7H)-one] | – | > 50 µM | 0.2 µM | – | 0.783 h |
| C[C@@H]1Cc2nn3c(c2CN1C(=O)c1ccc(Cl)c(Cl)c1)C(=O)N([C@H](C)c1ccc([S@](C)(=N)=O)cc1)C[C@H]3C (relative stereo) [Compound 18A, (3R,7R)-2-(3,4-dichlorobenzoyl)-3,7-dimethyl-9-((R*)-1-(4-((R*)—S-methylsulfonimidoyl)phenyl)ethyl)-1,2,3,4,8,9-hexahydropyrido[4′,3′:3,4]pyrazolo[1,5-a]pyrazin-10(7H)-one] | > 3 h | > 50 µM | – | 0.084 µM | – |
| CC(c1cc(F)c(=O)n(C2CC2)c1)N1C[C@@H](C)n2nc3c(c2C1=O)CN(C(=O)c1ccc(Cl)c(Cl)c1)[C@H](C)C3 (single isomer, unassigned) [Compound 46A, (3R,7R)-9-((R*)-1-(1-cyclopropyl-5-fluoro-6-oxo-1,6-dihydropyridin-3-yl)ethyl)-2-(3,4-dichlorobenzoyl)-3,7-dimethyl-1,2,3,4,8,9-hexahydropyrido[4′,3′:3,4]pyrazolo[1,5-a]pyrazin-10(7H)-one] | > 3 h | > 50 µM | 0.31 µM | – | – |
| C[C@@H]1Cc2nn3c(c2CN1C(=O)c1ccc(Cl)c(C#N)c1)C(=O)N([C@H](C)c1ccc(OC(F)F)cc1)C[C@@H]3C (relative stereo) [Compound 1A, 2-Chloro-5-((3R,7S*)-9-((R*)-1-(4-(difluoromethoxy)phenyl)ethyl)-3,7-dimethyl-10-oxo-1,2,3,4,7,8,9,10-octahydropyrido[4′,3′:3,4]pyrazolo[1,5-a]pyrazine-2-carbonyl)benzonitrile] | 0.235 h | > 50 µM | – | 0.21 µM | – |
